According to paper PMC10489817, “2-Alkyl-Substituted-4-Amino-Thieno[2,3-d]Pyrimidines: Anti-Proliferative Properties to In Vitro Breast Cancer Models” (Molecules, 2023):
Read-outs that look alike come from different tables or passages of the source.

What was measured:
MDA-MB-231 = assay: MTT anti-proliferative test, MDA-MB-231; assay type: cell-based, human; details: for SI (selective index) MDA-MB-231: IC50 MCF-10A/IC50 MDA-MB-231
From the text: The MCF-10A cell line (normal human mammary epithelial cells) served as a reference control.
All breast cell lines (MCF-10A, MCF-7, and MDA-MB-231) were purchased from the American Type Culture Collection—ATCC (Manassas, VA, USA). The MCF-7 and MDA-MB-231 were cultivated in Dulbecco’s modified Eagle’s medium (DMEM) and supplemented with 10% fetal bovine serum (FBS), 1% sodium pyruvate, and 1% MEM non-essential amino acids (NEAA) without antibiotics. The non-tumorigenic breast cell line (MCF-10A) was cultivated in DMEM medium (Sigma-Aldrich, St. Louis, MO, USA) and supplemented with 10% FBS, 1% sodium pyruvate, 1% non-essential amino acids (NEAA), 20 ng/mL human epithelia growth factor (hEGF), 10 μg/mL insulin, and 0.5 μg/mL hydrocortisone without antibiotics. All cell lines were maintained in a humidified atmosphere, with 5% CO2 at 37 °C.
Using the standard MTT-dye reduction assay described by Mosmann, the anti-proliferative activity was tested. The method is based on the metabolism of the tetrazolium salt MTT to insoluble formazan. The formazan absorption was registered using a microplate reader at λ = 540 nm. The measured absorption is an indicator of cell viability and metabolic activity. Anti-proliferative activities were expressed as IC50 values (concentrations required for 50% inhibition of cell growth), calculated using non-linear regression analysis (GraphPad Software, San Diego, CA, USA).

MCF-10A = assay: Cell cycle analysis by propidium iodide staining, MCF-10A; assay type: cell-based, human; details: for change of %G1 vs control, MCF-10A / change of %G2 vs control, MCF-10A / change of %S vs control, MCF-10A: control = 100%, 24 h; for %G1, MCF-10A / %G2, MCF-10A / %S, MCF-10A: treated at IC50, 24 h
Protocol: Our study continued with the examination of the effect of the newly synthesized compounds’ IC50 values on cell cycle progression. The cell aliquots were collected, and FACS analyses were used to detect the effects of cell treatments with the selected compounds (2, 4, and 5). A propidium iodide staining assay was performed.
The changes in the cell cycle distribution in % (G1, S, and G2 phases), based on the graphical figures A–C, were calculated and are given in Table 4.
The cells were trypsinized, suspended in medium + 10% FCS, and centrifuged (1000 rpm, 5 min); then, the pellet was suspended in PBS (1 mL) and fixed with EtOH. The cells were suspended in 2.5 mL pre-cold 70% EtOH and incubated on ice for 15 min. The staining procedure was as follows: the pellet was suspended in a 500 μL PI-solution in PBS and 0.1 mg/mL RNase A, and 0.05% Triton X-100 was added. After incubation for 10 min at 37 °C, the cells were transferred to the flow cytometer and cell fluorescence was measured. The samples were measured by flow cytometry (LSR II, BD Biosciences, Franklin Lakes, NJ, USA) and analyzed using BD FACS DIVA software v. 6.1.3 (BD Biosciences).

[1] = in vitro 3T3 NRU test, cytotoxicity; assay type: cell-based, mouse; details: mouse, BALB/3T3 clone A31 cells (mouse embryo fibroblasts)
Protocol: (§1) Compounds 2–5 were studied for cytotoxicity/phototoxicity by an in vitro 3T3 NRU-test. The cell line BALB 3T3, clone A31 (mouse embryo fibroblasts), was incubated with the test compounds at a concentration from 15 to 4000 µg/mL for 24 h at 37 °C, 5% CO2, and 95% humidity. The cytotoxicity and phototoxicity were expressed in percentages relative to the negative control determined. […] Based on the dose–response curves, the CC50/PC50 values (50% cytotoxic/phototoxic concentration) were calculated by nonlinear regression analysis (Table 1). The CC50 values can be used to calculate the PIF (photo-irritancy factor) for each test compound according to the following formula: PIF = CC50/PC50.
(§2) BALB/3T3 cells were cultured in 75 cm^2 tissue culture flasks in DMEM, 10% FBS, 2 mM glutamine, and antibiotics (penicillin 100 U/mL and streptomycin-100 µg/mL) at 37 °C, 5% CO2, and 90% relative humidity. Cytotoxicity/phototoxicity was assessed by a validated BALB/3T3 clone A31 neutral red uptake assay (3T3 NRU test). Briefly, cells were plated in a 96-well microtiter plate at a density of 1 × 10^4 cells/100 µL/well and incubated for 24 h. A wide concentration range was applied for the test compounds. For the phototoxicity tests, 96-well plates were irradiated with a dose of 2.4 J/cm^2, and the cells were incubated for an additional 24 h. After treatment with neutral red medium, washing, and treatment with the ethanol/acetic acid solution, the absorption was measured on a TECAN microplate reader (TECAN, Grödig, Austria) at a wavelength of 540 nm. The light source which we used was a light-emitting diode (LED) matrix—an artificial solar light simulator Helios-iO, model LE-9ND55-H—5500K (SERIC Ltd., Tokyo, Japan).
(§3) Cytotoxicity/phototoxicity were expressed as CC50/PC50 values (concentrations required for 50% cytotoxicity/phototoxicity), calculated using non-linear regression analysis (GraphPad Software GraphPad Prism 9.5.1, San Diego, CA, USA). The CC50 values were used to calculate the PIF (photo-irritancy factor) for each test substance, according to the following formula: […]

BALB 3T3 cells = assay: in vitro 3T3 NRU test, cytotoxicity; assay type: cell-based, mouse; details: for IC50: BALB 3T3, value in brackets
Protocol: as §1, §2, §3

[2] = Homo sapiens, MDA-MB-231, MTT, read-out: IC50 MDA-MB-231 (converted)
[3] = Homo sapiens, MDA-MB-231, MTT, read-out: IC50 MDA-MB-231 (text)
[4] = Homo sapiens, MDA-MB-231, MTT, read-out: IC50 of Mean ± SD, Anti-Proliferative Activity MDA-MB-231
[5] = MTT, read-out: IC50 MDA-MB-231 (converted)
[6] = BALB 3T3, 24 h, NRU, no irradiation (CC50), read-out: IC50 of Mean ± SD, Cytotoxicity
[7] = BALB 3T3, value in brackets, read-out: IC50, Cytotoxicity (converted)

| SMILES | IC50 (MDA-MB-231; [2]) | IC50 (MDA-MB-231; [3]) | IC50 (MDA-MB-231; [4]) | SI (selective index) MDA-MB-231 (MDA-MB-231) | IC50 (MDA-MB-231; [5]) | change of %G1 vs control, MCF-10A (MCF-10A) | change of %G2 vs control, MCF-10A (MCF-10A) | change of %S vs control, MCF-10A (MCF-10A) | %G1, MCF-10A (MCF-10A) | %G2, MCF-10A (MCF-10A) | %S, MCF-10A (MCF-10A) | IC50 at 24 h [1, 6] | IC50 at 24 h [1, 7] | IC50 (BALB 3T3 cells) | melting point | IC50 of Mean ± SD, Cytotoxicity (BALB 3T3 cells; BALB 3T3, 24 h, NRU, no irradiation (CC50)) |
| --- | --- | --- | --- | --- | --- | --- | --- | --- | --- | --- | --- | --- | --- | --- | --- | --- |
| CCOC(=O)Cc1nc(N)c2c(C)c(C(=O)OCC)sc2n1 [Compound 2, Ethyl 4-Amino-2-(2-Ethoxy-2-Oxoethyl)-5-Methylthieno[2,3-d]Pyrimidine-6-Carboxylate] | 170 µM | 52.6 µg/mL | 52.6 ± 3.2 µg/mL | 9.6 | 160 µM | +5.439% | −6.42% | −20.8% | 85.9% | 6.55% | 7.328% | 1740 ± 75.5 µg/mL | 5370 µM | 5400 µM | 206 to 207 °C |  |
| CCOC(=O)c1sc2nc(CC)nc(N)c2c1C [Compound 4, Ethyl 4-Amino-2-Ethyl-5-Methylthieno[2,3-d]Pyrimidine-6-Carboxylate] | 200 µM | 62.9 µg/mL | 62.9 ± 5.7 µg/mL | 5.8 | 240 µM | +4.9% | +15.4% | −29.0% | 85.5% | 8.108% | 6.53% | 2630 µg/mL | 9370 µM | 6400 µM | 173 to 175 °C | 1678 ± 70.4 µg/mL |
| CCOC(=O)c1sc2nc(C)nc(N)c2c1C [Compound 5, Ethyl 4-Amino-2,5-Dimethyl-Thieno[2,3-d]Pyrimidine-6-Carboxylate] | 1500 µM |  | 365 ± 26.6 µg/mL | 1.7 | 1450 µM | +5.52% | +24.657% | −13.9% | 86% | 8.72% | 7.92% | 1540 ± 61.5 µg/mL | 5400 µM |  | 203 to 204 °C |  |
